Results published in patent publication US9751869B2, “LXR modulators” (BRISTOL-MYERS SQUIBB COMPANY, priority 2013, dated 2017).

Biological target: T1, LXRβ (Homo sapiens, UniProt P55055)
T1 construct: Co-transfection expression plasmids, comprising full-length LXRα (pCMX-h LXRα or LXRβ (pCMX-hLXRβ)); expressed in transfected cells; host or cells: CV-1 African green monkey kidney cells, transient transfection with pCMX-hLXRβ
T1 sequence (P55055 1-460): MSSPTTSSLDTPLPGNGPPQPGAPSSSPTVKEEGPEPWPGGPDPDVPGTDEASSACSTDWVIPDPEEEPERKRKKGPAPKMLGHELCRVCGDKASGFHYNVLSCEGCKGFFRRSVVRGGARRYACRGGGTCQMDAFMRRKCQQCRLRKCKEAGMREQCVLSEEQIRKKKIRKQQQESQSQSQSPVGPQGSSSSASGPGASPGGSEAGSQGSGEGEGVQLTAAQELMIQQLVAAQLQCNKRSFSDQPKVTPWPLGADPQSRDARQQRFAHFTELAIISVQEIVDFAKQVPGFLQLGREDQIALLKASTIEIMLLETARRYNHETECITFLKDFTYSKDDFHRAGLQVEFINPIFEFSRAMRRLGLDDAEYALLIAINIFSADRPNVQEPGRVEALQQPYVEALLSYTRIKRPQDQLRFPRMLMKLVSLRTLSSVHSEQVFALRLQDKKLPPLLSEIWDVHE
T1 sequence (P19793 1-462 partner): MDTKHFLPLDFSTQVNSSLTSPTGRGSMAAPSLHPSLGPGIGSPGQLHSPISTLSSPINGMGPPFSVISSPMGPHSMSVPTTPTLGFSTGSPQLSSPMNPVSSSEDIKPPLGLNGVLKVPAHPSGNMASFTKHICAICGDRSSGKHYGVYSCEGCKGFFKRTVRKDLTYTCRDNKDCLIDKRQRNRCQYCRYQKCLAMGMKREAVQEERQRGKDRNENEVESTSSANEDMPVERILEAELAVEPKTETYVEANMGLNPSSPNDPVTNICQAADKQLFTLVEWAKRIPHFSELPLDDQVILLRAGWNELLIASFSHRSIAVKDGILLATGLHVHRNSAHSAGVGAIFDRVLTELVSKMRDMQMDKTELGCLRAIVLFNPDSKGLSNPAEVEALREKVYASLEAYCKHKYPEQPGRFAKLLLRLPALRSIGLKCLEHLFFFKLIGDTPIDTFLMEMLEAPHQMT
Assay: LXR/LXRE co-transfection assay (luciferase reporter) in CV-1 cells, LXRβ
Format: cell-based
Details: for EC50: CV-1 cells transfected with pCMX-hLXRβ and LXREx1-Tk-Luciferase, 20 hours incubation, read-out: LXRbeta agonism EC50; for Emax: CV-1 cells, relative to maximum response of high control N-(3-((4-fluorophenyl)-(naphthalene-2-sulfonyl)amino)propyl)-2,2-dimethylpropionamide, read-out: LXRbeta % EFFICACY
In short: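 Luciferase read-out after 20 h compound treatment at 37 °C of CV-1 cells carrying transfected hLXRβ plus one-copy LXRE reporter, endogenous RXR partnering. Sigmoidal fit of 10-point half-log curves (4 wells each) gave EC50; % efficacy versus maximal response of the propionamide reference agonist.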

## Cc1nc(-c2ccc3c(c2)OC(F)(F)O3)c(-c2cc(-c3cc(F)c(CO)c(S(C)(=O)=O)c3)ccc2-c2cc(C(F)(F)C(=O)NC(C)(C)C)nn2C)o1 [Example 84, N-tert-butyl-2-(5-(3-(4-(2,2-difluorobenzo[d][1,3]dioxol-5-yl)-2-methyloxazol-5-yl)-3′-fluoro-4′-(hydroxymethyl)-5′-(methylsulfonyl)biphenyl-4-yl)-1-methyl-1H-pyrazol-3-yl)-2,2-difluoroacetamide]
  EC50: 61 nM
  Emax: 26%

## CNC(=O)C(F)(F)c1cc(-c2ccc(-c3cc(F)cc(S(C)(=O)=O)c3)cc2-c2oc(C)nc2-c2ccc3c(c2)OC(F)(F)O3)n(C)n1 [Example 85, 2-(5-(3-(4-(2,2-difluorobenzo[d][1,3]dioxol-5-yl)-2-methyloxazol-5-yl)-3′-fluoro-5′-(methylsulfonyl)biphenyl-4-yl)-1-methyl-1H-pyrazol-3-yl)-2,2-difluoro-N-methylacetamide]
  EC50: 588 nM
  Emax: 55%

## Cc1nc(-c2ccc3c(c2)OC(F)(F)O3)c(-c2cc(-c3cc(F)c(CO)c(S(C)(=O)=O)c3)ccc2-c2cc(C(F)(F)C(=O)NCCO)nn2C)o1 [Example 86, 2-(5-(3-(4-(2,2-difluorobenzo[d][1,3]dioxol-5-yl)-2-methyloxazol-5-yl)-3′-fluoro-4′-(hydroxymethyl)-5′-(methylsulfonyl)biphenyl-4-yl)-1-methyl-1H-pyrazol-3-yl)-2,2-difluoro-N-(2-hydroxyethyl)acetamide]
  EC50: 715 nM
  Emax: 37%

## Cc1nc(-c2ccc3c(c2)OC(F)(F)O3)c(-c2cc(-c3cc(F)c(CO)c(S(C)(=O)=O)c3)ccc2-c2cc(C(F)(F)C(=O)NCC3CC3)nn2C)o1 [Example 87, N-(cyclopropylmethyl)-2-(5-(3-(4-(2,2-difluorobenzo[d][1,3]dioxol-5-yl)-2-methyloxazol-5-yl)-3′-fluoro-4′-(hydroxymethyl)-5′-(methylsulfonyl)biphenyl-4-yl)-1-methyl-1H-pyrazol-3-yl)-2,2-difluoroacetamide]
  EC50: 134 nM
  Emax: 33%

## Cc1nc(-c2ccc3c(c2)OC(F)(F)O3)c(-c2cc(-c3cc(F)c(CO)c(S(C)(=O)=O)c3)ccc2-c2cc(C(F)(F)C(=O)NC3CC3)nn2C)o1 [Example 88, N-cyclopropyl-2-(5-(3-(4-(2,2-difluorobenzo[d][1,3]dioxol-5-yl)-2-methyloxazol-5-yl)-3′-fluoro-4′-(hydroxymethyl)-5′-(methylsulfonyl)biphenyl-4-yl)-1-methyl-1H-pyrazol-3-yl)-2,2-difluoroacetamide]
  EC50: 85 nM
  Emax: 49%

## Cc1nc(-c2ccc3c(c2)OC(F)(F)O3)c(-c2cc(-c3cc(F)c(CO)c(S(C)(=O)=O)c3)ccc2-c2cc(C(F)(F)C(=O)NCC(N)=O)nn2C)o1 [Example 89, N-(2-amino-2-oxoethyl)-2-(5-(3-(4-(2,2-difluorobenzo[d][1,3]dioxol-5-yl)-2-methyloxazol-5-yl)-3′-fluoro-4′-(hydroxymethyl)-5′-(methylsulfonyl)biphenyl-4-yl)-1-methyl-1H-pyrazol-3-yl)-2,2-difluoroacetamide]
  EC50: 4780 nM
  Emax: 37%

## Cc1nc(-c2ccc3c(c2)OC(F)(F)O3)c(-c2cc(-c3cc(F)c(CO)c(S(C)(=O)=O)c3)ccc2-c2cc(C(F)(F)C(=O)NCC(F)(F)F)nn2C)o1 [Example 90, 2-(5-(3-(4-(2,2-difluorobenzo[d][1,3]dioxol-5-yl)-2-methyloxazol-5-yl)-3′-fluoro-4′-(hydroxymethyl)-5′-(methylsulfonyl)biphenyl-4-yl)-1-methyl-1H-pyrazol-3-yl)-2,2-difluoro-N-(2,2,2-trifluoroethyl)acetamide]
  EC50: 58 nM
  Emax: 34%

## CNC(=O)C(F)(F)c1cc(-c2ccc(-c3cc(F)c(CO)c(S(C)(=O)=O)c3)cc2-c2nc(C)oc2-c2ccc3c(c2)OC(F)(F)O3)n(C)n1 [Example 91, 2-(5-(3-(5-(2,2-difluorobenzo[d][1,3]dioxol-5-yl)-2-methyloxazol-4-yl)-3′-fluoro-4′-(hydroxymethyl)-5′-(methylsulfonyl)biphenyl-4-yl)-1-methyl-1H-pyrazol-3-yl)-2,2-difluoro-N-methylacetamide]
  EC50: 135 nM
  Emax: 45%

## Cc1nc(-c2ccc3c(c2)OC(F)(F)O3)c(-c2cc(-c3cc(F)c(CO)c(S(C)(=O)=O)c3)ccc2-c2cc(C(C)(C)O)nn2C)o1 [Example 92, 2-(5-(3-(4-(2,2-difluorobenzo[d][1,3]dioxol-5-yl)-2-methyloxazol-5-yl)-3′-fluoro-4′-(hydroxymethyl)-5′-(methylsulfonyl)biphenyl-4-yl)-1-methyl-1H-pyrazol-3-yl)propan-2-ol]
  EC50: 105 nM
  Emax: 38%

## Cc1nc(-c2ccc(OC(F)(F)F)cc2)c(-c2cc(-c3cc(F)c(CO)c(S(C)(=O)=O)c3)ccc2-c2cc(C(F)(F)F)nn2C)o1 [Example 93, (3-fluoro-4′-(1-methyl-3-(trifluoromethyl)-1H-pyrazol-5-yl)-3′-(2-methyl-4-(4-(trifluoromethoxy)phenyl)oxazol-5-yl)-5-(methylsulfonyl)biphenyl-4-yl)methanol]
  EC50: 16 nM
  Emax: 93%

## Cc1nc(-c2ccc3c(c2)OC(F)(F)O3)c(-c2cc(-c3cccc(S(C)(=O)=O)c3)ccc2-c2cc(C(C)(F)F)nn2C)o1 [Example 94, 4-(2,2-difluorobenzo[d][1,3]dioxol-5-yl)-5-(4-(3-(1,1-difluoroethyl)-1-methyl-1H-pyrazol-5-yl)-3′-(methylsulfonyl)biphenyl-3-yl)-2-methyloxazole]
  EC50: 32 nM
  Emax: 87%

## Cc1nc(-c2ccc3c(c2)OC(F)(F)O3)c(-c2cc(-c3cc(F)c(CO)c(S(C)(=O)=O)c3)ccc2-c2cc(C(C)(F)F)nn2C)o1 [Example 95, (3′-(4-(2,2-difluorobenzo[d][1,3]dioxol-5-yl)-2-methyloxazol-5-yl)-4′-(3-(1,1-difluoroethyl)-1-methyl-1H-pyrazol-5-yl)-3-fluoro-5-(methylsulfonyl)biphenyl-4-yl)methanol]
  EC50: 19 nM
  Emax: 65%

## Cc1nc(-c2ccc3c(c2)OC(F)(F)O3)c(-c2cc(-c3cccc(S(C)(=O)=O)c3)ccc2-c2cc(C(C)(C)C(N)=O)nn2C)o1 [Example 96, 2-(5-(3-(4-(2,2-difluorobenzo[d][1,3]dioxol-5-yl)-2-methyloxazol-5-yl)-3′-(methylsulfonyl)biphenyl-4-yl)-1-methyl-1H-pyrazol-3-yl)-2-methylpropanamide]
  EC50: 126 nM
  Emax: 61%

## Cc1nc(-c2ccc3c(c2)OC(F)(F)O3)c(-c2cc(-c3cc(F)c(CO)c(S(C)(=O)=O)c3)ccc2-c2cc(C(C)(C)C#N)nn2C)o1 [Example 97, 2-(5-(3-(4-(2,2-difluorobenzo[d][1,3]dioxol-5-yl)-2-methyloxazol-5-yl)-3′-fluoro-4′-(hydroxymethyl)-5′-(methylsulfonyl)biphenyl-4-yl)-1-methyl-1H-pyrazol-3-yl)-2-methylpropanenitrile]
  EC50: 48 nM
  Emax: 82%

## Cc1nc(-c2ccc3c(c2)OC(F)(F)O3)c(-c2cc(-c3cccc(S(C)(=O)=O)c3)ccc2-c2cc(CO)nn2C)o1 [Example 98, (5-(3-(4-(2,2-difluorobenzo[d][1,3]dioxol-5-yl)-2-methyloxazol-5-yl)-3′-(methylsulfonyl)-[1,1′-biphenyl]-4-yl)-1-methyl-1H-pyrazol-3-yl)methanol]
  EC50: 258 nM
  Emax: 57%
